Each structure is given as a SMILES string. Like-named read-outs stand apart in the source and are kept apart here. Numbered stars: 1 amine (or outer) side, 2 acyl side, 3 side chain; on linkers, the order of the positions; unused ones are H or OH. Square brackets hold non-standard residues; d marks the D form. Side chains are listed from the residue outwards. Peptide text beside a SMILES is read from it. * marks the point of attachment. C20 diacid = O=C(O)CCCCCCCCCCCCCCCCCCC(=O)*; γGlu = O=C(O)[C@H](CCC(=O)[*:2])N[*:1]; AEEA = NCCOCCOCC(=O)O; Aib = CC(C)(N)C(=O)O

In data set [1] the target is GLP1R (Homo sapiens, UniProt P43220). Put plainly: hGLP1R potency, cAMP accumulation in CHO-K1 cells stably overexpressing hGLP1R. Format: cell-based. Further details: host or cells: CHO-K1. To be noted: for Selectivity: SCTR EC50/GLP1R EC50 ratio; for EC50: cAMP accumulation, CHO-K1 cells overexpressing hGLP1R; for SCTR EC50/GLP1R EC50 ratio: selectivity for hGLP1R over hSCTR, cAMP accumulation in CHO-K1 cells. In a few lines:
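EC50 derives from variable-slope nonlinear regression of cAMP HTRF signal, with purified peptides tested as 11 three-fold dilutions in duplicate. Assay: hGLP1R-overexpressing CHO-K1 cells, 0.5 mM IBMX, 0.05% casein in DPBS, 30 min room-temperature stimulation, GLP-1(7-36) as reference agonist.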
Background: Cyclic AMP is a second messenger, typically raised through Gs and lowered through Gi signalling.

Data set [2] in a line: Fibril formation of crude library peptides (Thioflavin T). The arrangement: key: average ThT fluorescence emission at 480 nm (ex 450 nm), raw units. The format is physicochemical. To be noted: Physical stability of peptides. In a few lines: (§1)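 Turbidity is the absorbance at 600 nm, taken before heating. Fibril signal is the mean ThT emission at 480 nm (450 nm excitation), read every 10 min over 72 h at 40° C with 700 rpm shaking between reads. Peptides at 267 μM, pH 4.0 acetate or pH 7.0 phosphate buffer (50 mM), 4 μM ThT final.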

For data set [3], the target named is SCTR (Homo sapiens, UniProt P47872). Nature of the data set: hSCTR potency, cAMP accumulation in CHO-K1 cells stably overexpressing hSCTR. The format is cell-based. To be noted: cAMP accumulation, CHO-K1 cells overexpressing hSCTR. Further details: alternatively Euroscreen ES-712-AF; FAST-0161L; host or cells: CHO-K1. In a few lines:
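EC50 derived from variable-slope nonlinear regression on 11-point, 3-fold series run in duplicate (crude peptides: 5 points, 10-fold, n=1). Compound stimulation lasted 30 min at room temperature in casein/IBMX-containing DPBS (0.05%, 0.5 mM), 2000 cells/well; cAMP detected by time-resolved FRET after one hour.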

Data set [4] can be described thus: Turbidity of crude library peptides (absorbance at 600 nm). The format is physicochemical. As to conditions: Physical stability of peptides. Summed up: as §1
The mark [5] stands for this setting: read-out: pEC50 hGLPR1 (converted).
The mark [6] stands for this setting: read-out: pEC50 hSCTR (converted).
Where [7] appears, read: read-out: hGLP1R pEC50 (converted).
Where [8] appears, read: read-out: hSCTR pEC50 (converted).

Sequence of GLP1R (P43220 24-463): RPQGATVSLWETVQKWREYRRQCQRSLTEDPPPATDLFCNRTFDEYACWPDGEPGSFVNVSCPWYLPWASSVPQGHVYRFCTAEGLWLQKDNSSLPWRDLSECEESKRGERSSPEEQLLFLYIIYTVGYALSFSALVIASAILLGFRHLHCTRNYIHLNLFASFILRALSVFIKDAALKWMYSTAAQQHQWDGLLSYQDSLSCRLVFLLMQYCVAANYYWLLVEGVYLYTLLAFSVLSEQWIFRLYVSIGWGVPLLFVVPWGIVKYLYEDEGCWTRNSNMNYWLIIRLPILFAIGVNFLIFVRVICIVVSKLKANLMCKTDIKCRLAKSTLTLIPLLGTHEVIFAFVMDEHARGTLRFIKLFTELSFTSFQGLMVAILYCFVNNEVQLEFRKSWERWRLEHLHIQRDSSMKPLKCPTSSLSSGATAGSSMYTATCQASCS
Sequence of SCTR (P47872 23-440): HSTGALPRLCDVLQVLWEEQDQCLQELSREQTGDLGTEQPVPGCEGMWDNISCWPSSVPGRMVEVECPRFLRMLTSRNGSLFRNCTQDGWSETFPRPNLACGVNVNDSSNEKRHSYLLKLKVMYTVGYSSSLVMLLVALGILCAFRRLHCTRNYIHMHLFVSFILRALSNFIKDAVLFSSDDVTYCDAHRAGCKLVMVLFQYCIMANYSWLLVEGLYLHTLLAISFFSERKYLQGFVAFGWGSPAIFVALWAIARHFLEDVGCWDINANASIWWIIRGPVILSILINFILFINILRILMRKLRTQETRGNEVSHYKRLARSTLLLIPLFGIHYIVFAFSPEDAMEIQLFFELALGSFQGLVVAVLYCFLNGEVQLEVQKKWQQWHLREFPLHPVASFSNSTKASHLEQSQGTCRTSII

As to `CC(C)C[C@H](NC(=O)[C@H](Cc1ccccc1)NC(=O)[C@H](CCCNC(=N)N)NC(=O)[C@H](CCC(N)=O)NC(=O)[C@H](C)NC(=O)[C@H](C)NC(=O)[C@H](C)NC(=O)C(C)(C)NC(=O)[C@H](CCC(=O)O)NC(=O)[C@H](CCCCNC(=O)COCCOCCNC(=O)COCCOCCNC(=O)CC[C@H](NC(=O)CCCCCCCCCCCCCCCCCCC(=O)O)C(=O)O)NC(=O)[C@H](CC(C)C)NC(=O)[C@H](CCCNC(=N)N)NC(=O)[C@H](CO)NC(=O)[C@@H](NC(=O)[C@H](CC(=O)O)NC(=O)[C@H](CO)NC(=O)[C@@H](NC(=O)[C@H](Cc1ccccc1)NC(=O)[C@@H](NC(=O)CNC(=O)[C@H](CCC(=O)O)NC(=O)C(C)(C)NC(=O)[C@@H](N)Cc1c[nH]cn1)[C@@H](C)O)[C@@H](C)O)C(C)C)C(=O)N[C@@H](CCC(=O)O)C(=O)N[C@@H](Cc1c[nH]cn1)C(=O)N[C@@H](CC(C)C)C(=O)N[C@H](C(N)=O)C(C)C` [compound 81] (H-H[Aib]EGTFTSDVSRLK([AEEA-AEEA-γGlu-C20 diacid])E[Aib]AAAQRFLEHLV-NH2), in data set [1], the Selectivity was 1217. In addition, the figures for the EC50 in data set [1] (setting [5]) and in data set [3] (setting [6]) were 0.0794 nM and 79.4 nM, respectively. The same compound gave a Fibril formation in data set [2] of 10620. Moreover, in data set [4], the “Turbidity (pH 7)” value is recorded as 0.08.
Regarding `CC(C)C[C@H](NC(=O)[C@H](Cc1ccccc1)NC(=O)[C@H](CCCNC(=N)N)NC(=O)[C@H](CCC(N)=O)NC(=O)[C@@H](NC(=O)[C@H](C)NC(=O)[C@H](C)NC(=O)C(C)(C)NC(=O)[C@H](CCC(=O)O)NC(=O)[C@H](CCCCNC(=O)COCCOCCNC(=O)COCCOCCNC(=O)CC[C@H](NC(=O)CCCCCCCCCCCCCCCCCCC(=O)O)C(=O)O)NC(=O)[C@H](CC(C)C)NC(=O)[C@H](CCC(=O)O)NC(=O)[C@H](CO)NC(=O)[C@@H](NC(=O)[C@H](CC(=O)O)NC(=O)[C@H](CO)NC(=O)[C@@H](NC(=O)[C@H](Cc1ccccc1)NC(=O)[C@@H](NC(=O)CNC(=O)[C@H](CCC(=O)O)NC(=O)C(C)(C)NC(=O)[C@@H](N)Cc1c[nH]cn1)[C@@H](C)O)[C@@H](C)O)C(C)C)[C@@H](C)O)C(=O)N[C@@H](CCC(=O)O)C(=O)N[C@@H](Cc1c[nH]cn1)C(=O)N[C@@H](CC(C)C)C(=O)N[C@H](C(N)=O)C(C)C` [compound 82] (H-H[Aib]EGTFTSDVSELK([AEEA-AEEA-γGlu-C20 diacid])E[Aib]AATQRFLEHLV-NH2), the Selectivity in data set [1] is 11264. For the same compound, the EC50 is 0.01 nM in data set [1] (setting [5]) and 100 nM in data set [3] (setting [6]). In data set [2], this compound came in with a Fibril formation of 8549. Besides, the “Turbidity (pH 7)” value in data set [4] worked out at 0.08.
With `CC(C)C[C@H](NC(=O)[C@H](Cc1ccccc1)NC(=O)[C@H](CCCNC(=N)N)NC(=O)[C@H](CCC(N)=O)NC(=O)[C@H](CCC(N)=O)NC(=O)[C@H](C)NC(=O)[C@H](C)NC(=O)[C@H](CCC(=O)O)NC(=O)[C@H](CCC(=O)O)NC(=O)[C@H](CCCCNC(=O)COCCOCCNC(=O)COCCOCCNC(=O)CC[C@H](NC(=O)CCCCCCCCCCCCCCCCCCC(=O)O)C(=O)O)NC(=O)[C@H](CC(C)C)NC(=O)[C@H](Cc1ccccc1)NC(=O)[C@H](CO)NC(=O)[C@@H](NC(=O)[C@H](CC(=O)O)NC(=O)[C@H](CO)NC(=O)[C@@H](NC(=O)[C@H](Cc1ccccc1)NC(=O)[C@@H](NC(=O)CNC(=O)[C@H](CCC(=O)O)NC(=O)C(C)(C)NC(=O)[C@@H](N)Cc1c[nH]cn1)[C@@H](C)O)[C@@H](C)O)C(C)C)C(=O)N[C@@H](CCC(=O)O)C(=O)N[C@@H](Cc1c[nH]cn1)C(=O)N[C@@H](CC(C)C)C(=O)N[C@H](C(N)=O)C(C)C` [compound 83] (H-H[Aib]EGTFTSDVSFLK([AEEA-AEEA-γGlu-C20 diacid])EEAAQQRFLEHLV-NH2), the Selectivity in data set [1] is recorded as 54828. The EC50 in data set [1] (setting [5]) is 0.0316 nM; in data set [3] (setting [6]), 1580 nM. In data set [2], this compound came in with a Fibril formation of 9070. For the same compound, the “Turbidity (pH 7)” value in data set [4] stood at 0.08.
For `CC(C)C[C@H](NC(=O)[C@H](Cc1ccccc1)NC(=O)[C@H](CCCNC(=N)N)NC(=O)[C@H](CCC(N)=O)NC(=O)[C@H](C)NC(=O)[C@H](C)NC(=O)[C@H](C)NC(=O)[C@H](Cc1ccccc1)NC(=O)[C@H](CCC(=O)O)NC(=O)[C@H](CCCCNC(=O)COCCOCCNC(=O)COCCOCCNC(=O)CC[C@H](NC(=O)CCCCCCCCCCCCCCCCCCC(=O)O)C(=O)O)NC(=O)[C@H](CC(C)C)NC(=O)[C@H](Cc1ccccc1)NC(=O)[C@H](CO)NC(=O)[C@@H](NC(=O)[C@H](CC(=O)O)NC(=O)[C@H](CO)NC(=O)[C@@H](NC(=O)[C@H](Cc1ccccc1)NC(=O)[C@@H](NC(=O)CNC(=O)[C@H](CCC(=O)O)NC(=O)C(C)(C)NC(=O)[C@@H](N)Cc1c[nH]cn1)[C@@H](C)O)[C@@H](C)O)C(C)C)C(=O)N[C@@H](CCC(=O)O)C(=O)N[C@@H](Cc1c[nH]cn1)C(=O)N[C@@H](CC(C)C)C(=O)N[C@H](C(N)=O)C(C)C` [compound 84] (H-H[Aib]EGTFTSDVSFLK([AEEA-AEEA-γGlu-C20 diacid])EFAAAQRFLEHLV-NH2), the EC50 is 0.0794 nM in data set [1] (setting [7]) and 3980 nM in data set [3] (setting [8]). Also, the “SCTR EC50/GLP1R EC50 ratio” value in data set [1] is recorded as 51215. The compound further came in with a Fibril formation in data set [2] of 47022. In addition, the “Turbidity (pH 7)” value in data set [4] came to 0.08.
Take `CC(C)C[C@H](NC(=O)[C@H](Cc1ccccc1)NC(=O)[C@H](CCCNC(=N)N)NC(=O)[C@H](CCC(N)=O)NC(=O)C(C)(C)NC(=O)[C@H](C)NC(=O)[C@H](C)NC(=O)[C@@H](NC(=O)[C@H](CCC(=O)O)NC(=O)[C@H](CCCCNC(=O)COCCOCCNC(=O)COCCOCCNC(=O)CC[C@H](NC(=O)CCCCCCCCCCCCCCCCCCC(=O)O)C(=O)O)NC(=O)[C@H](CC(C)C)NC(=O)[C@H](CCCNC(=N)N)NC(=O)[C@H](CO)NC(=O)[C@@H](NC(=O)[C@H](CC(=O)O)NC(=O)[C@H](CO)NC(=O)[C@@H](NC(=O)[C@H](Cc1ccccc1)NC(=O)[C@@H](NC(=O)CNC(=O)[C@H](CCC(=O)O)NC(=O)C(C)(C)NC(=O)[C@@H](N)Cc1c[nH]cn1)[C@@H](C)O)[C@@H](C)O)C(C)C)[C@@H](C)O)C(=O)N[C@@H](CCC(=O)O)C(=O)N[C@@H](Cc1c[nH]cn1)C(=O)N[C@@H](CC(C)C)C(=O)N[C@H](C(N)=O)C(C)C` [compound 85] (H-H[Aib]EGTFTSDVSRLK([AEEA-AEEA-γGlu-C20 diacid])ETAA[Aib]QRFLEHLV-NH2): the EC50 is 0.126 nM in data set [1] (setting [7]) and 1580 nM in data set [3] (setting [8]). Also, the “SCTR EC50/GLP1R EC50 ratio” value in data set [1] is recorded as 12682. Also, the Fibril formation in data set [2] was 19223. The “Turbidity (pH 7)” value in data set [4] is reported as 0.09.

The values are drawn from patent US20260201008A1, “SECRETIN-DERIVED GLP1R SELECTIVE AGONISTS” (GUBRA A/S, priority 2023, published 2026).
